The values below come from patent US20090197910A1, “NOVEL VIRAL REPLICATION INHIBITORS” (KATHOLIEKE UNIVERSITEIT LEUVEN, priority 2006, published 2009).

For data set [1], the system named is HCV Subgenomic Replicon. Nature of the data set: HCV-Huh-5-2 replicon cell assay (luciferase). Format: cell-based, Hepatitis C virus. The following applies: for EC50: Hepatitis C virus, HCV subgenomic replicon in Huh-5-2 cells, 72 hours, luciferase, read-out: EC50 (concentration required to inhibit luciferase activity in the replicon system by 50%); for SI (selectivity index, ratio of CC50 to EC50): Huh-5-2 cells. The procedure:
(§1) Huh-5-2 cells [a cell line with a persistent HCV replicon I3891uc-ubi-neo/NS3-3′/5.1; replicon with firefly luciferase-ubiquitin-neomycin phosphotransferase fusion protein and EMCV-IRES driven NS3-5B HCV polyprotein] was cultured in RPMI medium (Gibco) supplemented with 10% fetal calf serum, 2 mM L-glutamine (Life Technologies), 1× non-essential amino acids (Life Technologies); 100 IU/ml penicillin and 100 ug/ml streptomycin and 250 ug/ml G418 (Geneticin, Life Technologies). Cells were seeded at a densitiy of 7000 cells per well in 96 well View Plate™ (Packard) in medium containing the same components as described above, except for G418. Cells were allowed to adhere and proliferate for 24 hr. At that time, culture medium was removed and serial dilutions of the test compounds were added in culture medium lacking G418. Interferon alfa 2a (500 IU) was included as a positive control. Plates were further incubated at 37° C. and 5% CO2 for 72 hours. Replication of the HCV replicon in Huh-5 cells results in luciferase activity in the cells. Luciferase activity is measured by adding 50 μl of 1× Glo-lysis buffer (Promega) for 15 minutes followed by 50 ul of the Steady-Glo Luciferase assay reagent (Promega). Luciferase activity is measured with a luminometer and the signal in each individual well is expressed as a percentage of the untreated cultures. Parallel cultures of Huh-5-2 cells, seeded at a density of 7000 cells/well of classical 96-well cell culture plates (Becton-Dickinson) are treated in a similar fashion except that no Glo-lysis buffer or Steady-Glo Luciferase reagent is added. Instead the density of the culture is measured by means of the MTS method (Promega).

Data set [2] in a line: Cytostatic effect on Huh-5-2 cells (MTS method, parallel cultures). Format: cell-based. The note with it: human, read-out: CC50 (concentration required to inhibit the proliferation of exponentially growing Huh-5-2 cells by 50%). How it is done: as §1
(In general: Tetrazolium assays rely on reduction of a dye to a coloured formazan, in cell work by metabolically active cells.)

Take `CC(=O)OCC1OC(n2c(SCc3cc4cc(Br)ccc4oc3=O)nc3cc(F)ccc32)C(OC(C)=O)C(OC(C)=O)C1OC(C)=O` (stereo not drawn) [Compound 7f, Acetic acid 3,5-diacetoxy-2-acetoxymethyl-6-[2-(6-bromo-2-oxo-2H-chromen-3-ylmethylsulfanyl)-5-fluoro-benzoimidazol-1-yl]-tetrahydro-pyran-4-yl ester]: in data set [1], the EC50 was determined as 3.33 µM and the “SI (selectivity index, ratio of CC50 to EC50)” value is 6.59. Also, the CC50 at 72 h in data set [2] worked out at 21.9 µM.

Turning to `COc1cccc2cc(CSc3nc4cc(F)ccc4[nH]3)c(=O)oc12` [Compound 4h, 3-(5-Fluoro-1H-benzoimidazol-2-ylsulfanylmethyl)-8-methoxy-chromen-2-one], in data set [1], the EC50 was 15.9 µM and the “SI (selectivity index, ratio of CC50 to EC50)” value was 2.63. The CC50 at 72 h in data set [2] is 41.9 µM.

As to `O=c1oc2ccccc2cc1CSc1nc2ccccc2[nH]1` [Compound 4a, 3-(1H-Benzoimidazol-2-ylsulfanylmethyl)-chromen-2-one], in data set [1], the EC50 was found to be 26.6 µM and the “SI (selectivity index, ratio of CC50 to EC50)” value is recorded as 3.38. For the same compound, the CC50 at 72 h in data set [2] was found to be 90.1 µM.

As for `COc1cccc2cc(CSc3nc4cccnc4[nH]3)c(=O)oc12` [Compound 16b, 3-(3H-Imidazo[4,5-b]pyridin-2-ylsulfanylmethyl)-8-methoxy-chromen-2-one], in data set [1], the EC50 stood at 10.9 µM and the “SI (selectivity index, ratio of CC50 to EC50)” value stood at 2.78. Further, in data set [2], the CC50 at 72 h worked out at 30.3 µM.

`O=C(c1ccccc1)c1ccc2[nH]c(SCc3cc4ccccc4oc3=O)nc2c1` [Compound 4c, 3-(5-Benzoyl-1H-benzoimidazol-2-ylsulfanylmethyl)-chromen-2-one]: in data set [1], the EC50 amounted to 6.61 µM and the “SI (selectivity index, ratio of CC50 to EC50)” value was determined as 5.58. Further, in data set [2], the CC50 at 72 h stood at 36.8 µM.

Regarding `O=c1oc2ccc(Br)cc2cc1CSc1nc2ccccc2[nH]1` [Compound 4g, 3-(1H-Benzoimidazol-2-ylsulfanylmethyl)-6-bromo-chromen-2-one], in data set [1], the EC50 turned out to be 3.98 µM and the “SI (selectivity index, ratio of CC50 to EC50)” value is reported as 10.4. Besides, the CC50 at 72 h in data set [2] amounted to 41.7 µM.

Regarding `CC(=O)OCC1OC(n2c(SCc3cc4cc(Br)ccc4oc3=O)nc3ccccc32)C(OC(C)=O)C(OC(C)=O)C1OC(C)=O` (stereo not drawn) [Compound 7e, Acetic acid 4,5-diacetoxy-2-acetoxymethyl-6-[2-(6-bromo-2-oxo-2H-chromen-3-ylmethylsulfanyl)-benzoimidazol-1-yl]-tetrahydro-pyran-3-yl ester], in data set [1], the EC50 came out at 4.12 µM and the “SI (selectivity index, ratio of CC50 to EC50)” value was found to be 10.4. In addition, the CC50 at 72 h in data set [2] stood at 43.1 µM.

As to `O=c1oc2ccccc2cc1CSc1nc2cc(Cl)c(Cl)cc2[nH]1` [Compound 4e, 3-(5,6-Dichloro-1H-benzoimidazol-2-ylsulfanylmethyl)-chromen-2-one], in data set [1], the EC50 was found to be 15.5 µM and the “SI (selectivity index, ratio of CC50 to EC50)” value was determined as 4.80. In addition, the CC50 at 72 h in data set [2] came to 74.4 µM.

Regarding `Cc1cc2nc(SCc3cc4ccccc4oc3=O)[nH]c2cc1C` [Compound 4d, 3-(5,6-Dimethyl-1H-benzoimidazol-2-ylsulfanylmethyl)-chromen-2-one], in data set [1], the EC50 was determined as 15.2 µM and the “SI (selectivity index, ratio of CC50 to EC50)” value stood at 4.37. In addition, the CC50 at 72 h in data set [2] amounted to 66.6 µM.

As to `CC(=O)OCC1OC(n2c(SCc3cc4ccccc4oc3=O)nc3ccccc32)C(OC(C)=O)C(OC(C)=O)C1OC(C)=O` (stereo not drawn) [Compound 7a, Acetic acid 3,5-diacetoxy-2-acetoxymethyl-6-[2-(2-oxo-2H-chromen-3-ylmethylsulfanyl)-benzoimidazol-1-yl]-tetrahydro-pyran-4-yl ester], in data set [1], the EC50 amounted to 11.1 µM and the “SI (selectivity index, ratio of CC50 to EC50)” value is 6.88. For the same compound, the CC50 at 72 h in data set [2] is 76.4 µM.

Take `O=c1oc2ccccc2cc1CSc1nc2ccccc2o1` [Compound 19a, 3-(Benzooxazol-2-ylsulfanylmethyl)-chromen-2-one]: in data set [1], the EC50 stood at 11.7 µM and the “SI (selectivity index, ratio of CC50 to EC50)” value came out at 3.86. Moreover, the CC50 at 72 h in data set [2] stood at 45.2 µM.

Consider `O=c1oc2ccccc2cc1CSc1nc2cnc(Cl)nc2[nH]1` [Compound 16d, 3-(2-Chloro-9H-purin-8-ylsulfanylmethyl)-chromen-2-one], for which, in data set [1], the EC50 worked out at 2.03 µM and the “SI (selectivity index, ratio of CC50 to EC50)” value turned out to be 53.69. For the same compound, the CC50 at 72 h in data set [2] came to 109 µM.

Consider `COc1cccc2cc(CSc3nc4cc(Cl)c(Cl)cc4n3C3OC(COC(C)=O)C(OC(C)=O)C(OC(C)=O)C3OC(C)=O)c(=O)oc12` (stereo not drawn) [Compound 7h, Acetic acid 3,4,5-triacetoxy-6-[5,6-dichloro-2-(8-methoxy-2-oxo-2H-chromen-3-ylmethylsulfanyl)-benzoimidazol-1-yl]-tetrahydro-pyran-2-ylmethyl ester], for which, in data set [1], the EC50 was 4.35 µM and the “SI (selectivity index, ratio of CC50 to EC50)” value was 7.62. The CC50 at 72 h in data set [2] was found to be 33.1 µM.

For `O=c1oc2ccccc2cc1CSc1nc2cc(F)ccc2[nH]1` [Compound 4b, 3-(5-Fluoro-1H-benzoimidazol-2-ylsulfanylmethyl)-chromen-2-one], in data set [1], the EC50 was found to be 11.5 µM and the “SI (selectivity index, ratio of CC50 to EC50)” value was determined as 3.89. Further, in data set [2], the CC50 at 72 h was 44.8 µM.

On to `COc1cccc2cc(CSc3nc4cc(Cl)c(Cl)cc4[nH]3)c(=O)oc12` [Compound 4j, 3-(5,6-Dichloro-1H-benzoimidazol-2-ylsulfanylmethyl)-8-methoxy-chromen-2-one], for which, in data set [1], the EC50 was 3.58 µM and the “SI (selectivity index, ratio of CC50 to EC50)” value turned out to be 3.12. The CC50 at 72 h in data set [2] turned out to be 11.1 µM.

Regarding `O=c1oc2ccc(Br)cc2cc1CSc1nc2cccnc2[nH]1` [Compound 16c, 3-(3H-Imidazo[4,5-b]pyridin-2-ylsulfanylmethyl)-6-bromo-chromen-2-one], in data set [1], the EC50 came to 6.8 µM and the “SI (selectivity index, ratio of CC50 to EC50)” value is 18.82. Moreover, in data set [2], the CC50 at 72 h is 128 µM.

Take `CC(=O)OCC1OC(n2c(SCc3cc4ccccc4oc3=O)nc3cc(C)ccc32)C(OC(C)=O)C(OC(C)=O)C1OC(C)=O` (stereo not drawn) [Compound 7b, Acetic acid 3,5-diacetoxy-2-acetoxymethyl-6-[5-methyl-2-(2-oxo-2H-chromen-3-ylmethylsulfanyl)-benzoimidazol-1-yl]-tetrahydro-pyran-4-yl ester]: in data set [1], the EC50 stood at 8.28 µM and the “SI (selectivity index, ratio of CC50 to EC50)” value was determined as 5.42. Besides, in data set [2], the CC50 at 72 h came to 44.8 µM.

In the case of `Cc1cccc2cc(CSc3nc4ccccc4[nH]3)c(=O)oc12` [Compound 4f, 3-(1H-benzoimidazol-2-ylsulfanylmethyl)-8-methyl-chromen-2-one], in data set [1], the EC50 is 9.89 µM and the “SI (selectivity index, ratio of CC50 to EC50)” value came out at 2.77. The CC50 at 72 h in data set [2] was determined as 27.3 µM.

Take `CC(=O)OCC1OC(n2c(SCc3cc4ccccc4oc3=O)nc3cc(F)ccc32)C(OC(C)=O)C(OC(C)=O)C1OC(C)=O` (stereo not drawn) [Compound 7c, Acetic acid 3,5-diacetoxy-2-acetoxymethyl-6-[5-fluoro-2-(2-oxo-2H-chromen-3-ylmethylsulfanyl)-benzoimidazol-1-yl]-tetrahydro-pyran-4-yl ester]: in data set [1], the EC50 is 3.88 µM and the “SI (selectivity index, ratio of CC50 to EC50)” value stood at 11.1. Besides, in data set [2], the CC50 at 72 h was 43.1 µM.
